How the values were obtained:
AML-12 cells [1] = test: Propidium iodide staining, hypoxia/reoxygenation; type: cell-based, mouse; details: 1 μM; 4 h hypoxia, 1 h reoxygenation
Description: To assess whether the new SMCypIs reduced mPTP opening-induced cell death, propidium iodide fluorescence was measured in cells that had been co-loaded with calcein-AM. As expected, the loss of calcein fluorescence in cells subjected to hypoxia/reoxygenation was associated with enhanced propidium iodide fluorescence (Fig. 3A and 3C).
Calcium retention capacity (CRC) assay. Isolated liver mitochondria (1 mg/mL) energized with 5 mM glutamate/malate were incubated in a buffer allowing respiration of mitochondria (100 mM KCl, 50 mM sucrose, 10 mM HEPES, 5 mM KH2PO4, pH 7.4 at 30°C) supplemented with 1 µM calcium green 5N fluorescent probe. Mitochondria were pulsed with sequential additions of CaCl2 (20 µM) until mPTP opening along with rapid calcium release happened. The calcium concentration in the extra-mitochondrial medium was monitored with a Jasco FP-6300 spectrofluorimeter (Jasco, Bouguenais, France) at 506 nm excitation and 532 nm emission wavelengths.
Mitochondrial swelling assay. Mitochondrial swelling was assessed by measuring changes in absorbance at 540 nm using a Jasco V-530 spectrophotometer (Bouguenais, France) equipped with magnetic stirring and thermostatic control (30°C). […]
Monitoring of mPTP opening. mPTP opening was monitored in AML-12 cells using the CoCl2-calcein AM fluorescence-quenching assay. […] Calcein fluorescence was measured using a spectrofluorimeter at excitation and emission wavelengths of 485 nm and 535 nm, respectively. Images were acquired using a standard inverted fluorescence microscope (Zeiss Axio, […]
Propidium iodide staining. […] Fluorescence was measured using an Infinite 200 Pro fluorescent plate reader (Tecan, Mannedorf, Switzerland) at excitation and emission wavelengths of 533 nm and 617 nm, respectively. Images were acquired using a standard inverted fluorescence microscope (Zeiss Axio, Oberkochen, Germany). […]
Cell viability assays. Lactate dehydrogenase (LDH) release in culture medium was assessed using the commercially non-radioactive CytoTox-96 kit (Promega, Madison, Wisconsin) following the manufacturer’s instructions. […]

AML-12 cells [2] = test: mPTP opening, CoCl2-calcein AM fluorescence-quenching assay, hypoxia/reoxygenation; type: cell-based, mouse; details: 1 μM; 4 h hypoxia, 1 h reoxygenation
Description: We next evaluated the ability of compounds C105SR and C110SR to inhibit mPTP opening in cells. The hepatocyte cell line AML-12 was subjected to 4 h of hypoxia followed by 1 h of reoxygenation and mPTP opening was monitored using the CoCl2-calcein-acetoxymethyl ester (AM) fluorescence-quenching method.[19] Calcein-AM is a membrane permeable fluorophore which passively diffuses in all subcellular compartments including mitochondria. In the cell, the AM group of the fluorophore is cleaved by ubiquitous intracellular esterases, generating a hydrophilic product that is retained within the cell. The cells are then loaded with the divalent cobalt cation (Co^2+), which quenches calcein fluorescence in all subcellular compartments except the mitochondrial matrix, because the inner mitochondrial membrane is impermeable to cobalt. However, when mPTP is open, cobalt enters mitochondria and quenches mitochondrial calcein fluorescence. […]
Hypoxia/reoxygenation (H/R) in vitro model. AML-12 mouse hepatocyte line was obtained from American Type Culture Collection (ATCC) and maintained in DMEM/F12 culture medium at 37°C with 5% CO2. HepaRG human hepatocyte line was obtained from American Type Culture Collection (ATCC) and maintained in William’S E culture medium at 37°C with 5% CO2.When indicated, cells were incubated in phosphate buffered saline at 37°C in a hypoxic chamber filled with 94% N2, 1% O2, 5% CO2 for 4 h to mimic ischemic conditions. Then, cells were transferred to a CO2 incubator at 37°C in regular DMEM/F12 culture medium for 1 or 2 h under normoxic conditions (74% N2, 21% O2, 5% CO2). SMCypIs or vehicle (DMSO) were added during the hypoxia period, during the reoxygenation period, or during both. CsA and ALV were used as positive controls for hepatic protection against H/R injury.
Monitoring of mPTP opening. mPTP opening was monitored in AML-12 cells using the CoCl2-calcein AM fluorescence-quenching assay. Cells were loaded with 1 µM calcein-AM (green) for 20 min. Then, 1 mM CoCl2 was added and cells were incubated for another 10 min. Cells were washed and subjected to 4 h of hypoxia followed by 1 h of reoxygenation. Calcein fluorescence was measured using a spectrofluorimeter at excitation and emission wavelengths of 485 nm and 535 nm, respectively. Images were acquired using a standard inverted fluorescence microscope (Zeiss Axio, […]
media during the entire H/R period. Images shown are representative images of 12-18 images. […]
Optical density of purple formazan product was measured at 550 nm. […]

[3] = system: isolated mouse liver mitochondria; test: Calcium retention capacity (CRC) assay in isolated liver mitochondria; type: biochemical
CypD = CypD (Homo sapiens, UniProt P30405); test: CypD PPIase activity, chymotrypsin-coupled assay; type: biochemical; details: Table 1
[4] = system: isolated mouse liver mitochondria; test: Ca2+-induced mitochondrial swelling assay; type: biochemical; details: energised isolated mouse liver mitochondria

CypD, sequence (P30405 30-207): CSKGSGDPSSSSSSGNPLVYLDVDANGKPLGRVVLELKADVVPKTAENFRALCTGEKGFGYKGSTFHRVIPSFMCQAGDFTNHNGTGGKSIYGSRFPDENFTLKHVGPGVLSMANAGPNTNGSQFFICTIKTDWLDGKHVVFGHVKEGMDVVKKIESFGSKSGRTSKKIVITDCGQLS

C/C=C/C[C@@H](C)[C@@H](O)[C@H]1C(=O)N[C@@H](CC)C(=O)N(C)[C@H](C)C(=O)N(CC)[C@@H](C(C)C)C(=O)N[C@@H](C(C)C)C(=O)N(C)[C@@H](CC(C)C)C(=O)N[C@@H](C)C(=O)N[C@H](C)C(=O)N(C)[C@@H](CC(C)C)C(=O)N(C)[C@@H](CC(C)C)C(=O)N(C)[C@@H](C(C)C)C(=O)N1C [ALV, alisporivir, reference compound]
propidium iodide fluorescence (AML-12 cells [1]): low propidium iodide fluorescence | prevention of mPTP opening (loss of calcein fluorescence) (AML-12 cells [2]): substantially prevented | amount of Ca2+ required to open mPTP (CRC) ([3]; compound at 1 μM, basal 160 ± 8): 373 ± 59 nmol Ca2+/mg of mitochondrial | EC50 ([3]; isolated mouse liver mitochondria): 80 ± 20 nM | IC50 (CypD): 30 ± 5 nM | IC50 [4]: 50 ± 20 nM
